One data set relates to F. solani DF1500. The data set can be described thus: microbe, parasite or virus in culture. The class given is cell-based. As to conditions: 48 h.
Data set [1] deals with clinical isolates of C. albicans 2672R and C. albicans 1976R. The data set is described as follows: MIC against two clinical isolates, with or without 5% human serum. The class given is cell-based. The note with it: 48 h. As for the experimental part: The yeast strains were cultivated and suspended in Sabouraud’s Dextrose (SD) broth diluted to one sixth at a starting OD600 = ∼0.08 in a flat-bottomed microtitre plate. A serial dilution of peptide in the same broth was mixed with the inoculum to give a final peptide concentration of 0.4–22 µM. The antifungal activity was assessed by monitoring the OD600 in cycles of 30 minutes and an orbital shaking at 100 rpm using an Infinite M200 microplate reader (Tecan Group Ltd., Switzerland) for 24/48 h at 37°C. Cultures without peptides were used as positive controls and broth alone or with 22 µM peptide served as negative controls. The minimum concentration required for complete inhibition was assessed by both visible observations as well as by measuring the OD600 and taken as the MIC. Each experiment was repeated in triplicates. For studying the effects of metal ions, SD broth was adjusted with appropriate concentrations of salts to yield a final concentration of 100 and 135 mM for NaCl and KCl and 0.5–2 mM for CaCl2 and MgCl2. MIC determinations were carried out as described above. C. albicans ATCC10231 cells and salts in broth were taken as a positive control. Salts alone (NaCl, KCl, and CaCl2 and MgCl2) in broth or with 22 µM peptide served as a negative control. The effect of 5% human serum on the activities of B4010 against two C. albicans clinical isolates was determined. The human male serum was centrifuged at 13,000 rpm for 10 mins in order to remove the lipids and the supernatant was collected. The MIC values against clinical isolates of C. albicans 2672R and C. albicans 1976R were determined both in standard medium (SD broth) as well as in standard medium containing 5% serum supernatant as before.

In a further data set the test system is C. albicans ATCC 10231. The class given is cell-based. The note with it: Candida albicans, 6 h, 5.5 µM. On the procedure:
For all the experiments, unless otherwise stated, C. albicans ATCC 10231 strain was used. B4010 (1 mg/mL) was incubated with trypsin (enzyme:peptide ratio 1∶100) at 37°C. 20 µL aliquot of this mixture was withdrawn at various time intervals (0.5, 1, 2, 4 and 6 h) and mixed with 1 µL of trypsin inhibitor. The antifungal activity of the peptide was determined by adding this mixture to 180 µL of inoculum and monitoring the growth at OD600 for 24 h. Similar experiments performed in the presence of trypsin/trypsin inhibitor (without B4010) were used as a positive control. For assessing the antifungal activity in TF, the peptide was dissolved in freshly collected rabbit TF and incubated at 37°C for 6 h. After incubation, an equal volume of an overnight culture of C. albicans (∼10^6 CFU/mL) was mixed with peptides in tear fluid and incubated at 37°C for 24 h. The final concentrations of the peptide were at 4.4, 8.8 and 22 µM. A 100 µL aliquot of serial dilutions (10^2 or 10^3 times) of this mixture were inoculated on a SD agar plate and then incubated for 48 h at 37°C. […]
To study the effects of metal ions, the broth solution containing C. albicans (OD600 = 0.4–0.6) was adjusted to appropriate final concentrations of metal ions, incubated with 5.5 µM of B4010 for 6 h and the cell viability was determined as before after 48 h. […]

The next data set deals with F. solani ATCC36031. The data set can be described thus: microbe, parasite or virus in culture. The class given is cell-based. As to conditions: ATCC36031, 48 h.
Data set [2] in a line: Intact peptide after trypsin incubation (mass spectrometry). The class given is in vitro ADME. As to conditions: 6 h incubation with trypsin. On the procedure:
For all the experiments, unless otherwise stated, C. albicans ATCC 10231 strain was used. B4010 (1 mg/mL) was incubated with trypsin (enzyme:peptide ratio 1∶100) at 37°C. 20 µL aliquot of this mixture was withdrawn at various time intervals (0.5, 1, 2, 4 and 6 h) and mixed with 1 µL of trypsin inhibitor. The antifungal activity of the peptide was determined by adding this mixture to 180 µL of inoculum and monitoring the growth at OD600 for 24 h. Similar experiments performed in the presence of trypsin/trypsin inhibitor (without B4010) were used as a positive control. For assessing the antifungal activity in TF, the peptide was dissolved in freshly collected rabbit TF and incubated at 37°C for 6 h. After incubation, an equal volume of an overnight culture of C. albicans (∼10^6 CFU/mL) was mixed with peptides in tear fluid and incubated at 37°C for 24 h. The final concentrations of the peptide were at 4.4, 8.8 and 22 µM. A 100 µL aliquot of serial dilutions (10^2 or 10^3 times) of this mixture were inoculated on a SD agar plate and then incubated for 48 h at 37°C. Culture alone and culture with 50% tear fluid served as the positive control. The data was expressed in % killing with respect to culture without tear fluid.
Supplementary file pone.0087730.s002.tif: Figure S2 Positive charge electrospray ionization mass spectrometry of B4010 after incubation with trypsin (enzyme:B4010 = 1∶100). […]

Another data set can be described thus: Haemolytic assay. The class given is cell-based. As to conditions: rabbit red blood cells, 440 µM, 4% rabbit erythrocytes, read-out: haemolysis. As for the experimental part: Haemolytic activity of peptides and antifungal drugs were determined against rabbit red blood cells. Briefly, serial dilution of peptides/antifungals in PBS was mixed with rRBC (final concentration 4% v/v), incubated at 37°C for 1 h and centrifuged at 3000 rpm for 10 minutes. The release of hemoglobin in the supernatant was monitored by measuring the hemoglobin absorbance at 576 nm. The readings from cell suspension in PBS (without any additives) or 1% Triton-X100 were used as 0% or 100% haemolysis.

Another data set has as its system C57BL6 wild type mice. The data set is described as follows: In vivo acute toxicity. On the procedure:
Acute toxicity of B4010 was assessed with C57BL6 (6–8 weeks old) wild type mice. Two healthy wild type mice were chosen for each routes of administration. B4010 was delivered through intra-peritoneal (200 mg/kg) or (100 mg/kg) intra-venous routes. Two animals were used for each administration and monitored through 24/48 h to determine mortality, or signs of toxicity.

Values after ≈ are worked out from the molar mass of the structure shown. Bridge positions count the residues as written; N and C are the ends. Peptide text beside a SMILES is read from it. I, II: the chains in the order shown.

The term fraction remaining denotes what is left of the initial amount, in per cent. As to `CC(C)[C@H](NC(=O)[C@H](CCCCN)NC(=O)[C@H](CCCNC(=N)N)NC(=O)CNC(=O)[C@@H](N)CCCNC(=N)N)C(=O)N[C@H](C(=O)N[C@@H](CCCNC(=N)N)C(=O)N[C@@H](CCCNC(=N)N)C(=O)NCCCC[C@H](NC(=O)[C@H](CCCNC(=N)N)NC(=O)[C@H](CCCNC(=N)N)NC(=O)[C@@H](NC(=O)[C@@H](NC(=O)[C@H](CCCCN)NC(=O)[C@H](CCCNC(=N)N)NC(=O)CNC(=O)[C@@H](N)CCCNC(=N)N)C(C)C)C(C)C)C(=O)NCCCC[C@H](NC(=O)[C@H](CCCCNC(=O)[C@H](CCCNC(=N)N)NC(=O)[C@H](CCCNC(=N)N)NC(=O)[C@@H](NC(=O)[C@@H](NC(=O)[C@H](CCCCN)NC(=O)[C@H](CCCNC(=N)N)NC(=O)CNC(=O)[C@@H](N)CCCNC(=N)N)C(C)C)C(C)C)NC(=O)[C@H](CCCNC(=N)N)NC(=O)[C@H](CCCNC(=N)N)NC(=O)[C@@H](NC(=O)[C@@H](NC(=O)[C@H](CCCCN)NC(=O)[C@H](CCCNC(=N)N)NC(=O)CNC(=O)[C@@H](N)CCCNC(=N)N)C(C)C)C(C)C)C(=O)N[C@@H](CCCCN)C(=O)O)C(C)C` [B4010] (I: H-RGRKVVRRKKK-OH / II: H-RGRKVVRRK / III: H-RGRKVVRR / IV: H-RGRKVVRR; amide I:9-IV:C, I:10-II:C, II:9-III:C; N-terminus and C-terminus assumed), the MIC is 1.4 µM (≈ 6.39 µg/mL) against F. solani DF1500, 0.37 µM (≈ 1.69 µg/mL) in data set [1] and 1.4 µM (≈ 6.39 µg/mL) against F. solani ATCC36031. The viable cells with C. albicans ATCC 10231 is 40%. Besides, the fraction remaining at 6 h, 1 mg/mL in data set [2] was ~20%. In addition, in “Haemolytic assay”, the hemolysis at 1 h, 440 µM is < 1%. Further, the acute toxicity result in the data set with C57BL6 wild type mice (IP 200 mg/kg) is “no sign of mortality, morbidity or toxicity”; in the data set with C57BL6 wild type mice (IV 100 mg/kg), “no sign of mortality, morbidity or toxicity”.

The values are drawn from article PMC3912015, “Synthetic Multivalent Antifungal Peptides Effective against Fungi” (PLoS ONE, 2014).
